# Source: patent US9695155B2, “Herbicidal substituted pyrimidinyloxy benzene compounds” (E. I. DU PONT DE NEMOURS AND COMPANY, priority 2013, dated 2017)
# Columns and labels:
# [1] = tested on: barnyardgrass; assay: Test A preemergence; assay type: in vivo, Echinochloa crus-galli; settings: for Plant response rating, Barnyardgrass: 0 to 100 scale where 0 is no effect and 100 is complete control
# Procedure, shortened: (§1)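 Visual injury scored 0–100 (100 = complete control) against untreated controls about 10 days after treatment in a greenhouse. Test chemicals, formulated with surfactant in non-phytotoxic solvent, were sprayed on soil preemergence or on 2-10 cm, one- to two-leaf plants postemergence.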
# [2] = tested on: kochia; assay: Test A preemergence; assay type: in vivo, Kochia scoparia; settings: for Plant response rating, Kochia: 0 to 100 scale where 0 is no effect and 100 is complete control
# Procedure, shortened: as §1
# [3] = tested on: ragweed; assay: Test A preemergence; assay type: in vivo, Ambrosia elatior; settings: for Plant response rating, Ragweed: 0 to 100 scale where 0 is no effect and 100 is complete control
# Procedure, shortened: as §1
# [4] = tested on: Italian ryegrass; assay: Test A preemergence; assay type: in vivo, Lolium multiflorum; settings: for Plant response rating, Ryegrass, Italian: 0 to 100 scale where 0 is no effect and 100 is complete control
# Procedure, shortened: as §1
# [5] = tested on: giant foxtail; assay: Test A preemergence; assay type: in vivo, Setaria faberii; settings: for Plant response rating, Foxtail, Giant: 0 to 100 scale where 0 is no effect and 100 is complete control
# Procedure, shortened: as §1
# [6] = tested on: pigweed; assay: Test A preemergence; assay type: in vivo, Amaranthus retroflexus; settings: for Plant response rating, Pigweed: 0 to 100 scale where 0 is no effect and 100 is complete control
# Procedure, shortened: as §1
# [7] = tested on: barnyardgrass; assay: Test A postemergence; assay type: in vivo, Echinochloa crus-galli
# Procedure, shortened: as §1
# [8] = tested on: kochia; assay: Test A postemergence; assay type: in vivo, Kochia scoparia
# Procedure, shortened: as §1
# [9] = tested on: ragweed; assay: Test A postemergence; assay type: in vivo, Ambrosia elatior
# Procedure, shortened: as §1
# [10] = tested on: Italian ryegrass; assay: Test A postemergence; assay type: in vivo, Lolium multiflorum
# Procedure, shortened: as §1
# [11] = tested on: giant foxtail; assay: Test A postemergence; assay type: in vivo, Setaria faberii
# Procedure, shortened: as §1
# [12] = tested on: pigweed; assay: Test A postemergence; assay type: in vivo, Amaranthus retroflexus
# Procedure, shortened: as §1
# [13] = tested on: wheat; assay: Test A postemergence; assay type: in vivo, Triticum aestivum
# Procedure, shortened: as §1
# [14] = tested on: corn; assay: Test A postemergence; assay type: in vivo, Zea mays
# Procedure, shortened: as §1
# [15] = tested on: blackgrass; assay: Test A postemergence; assay type: in vivo, Alopecurus myosuroides
# Procedure, shortened: as §1
# [16] = tested on: galium; assay: Test A postemergence; assay type: in vivo, Galium aparine
# Procedure, shortened: as §1
# [17] = tested on: rice; assay: Test B flooded paddy test; assay type: in vivo, Oryza sativa; settings: Flood, 250 g ai/ha; 0 to 100 scale where 0 is no effect and 100 is complete control
# Procedure, shortened: (§2)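 Post-emergence paddy-water application at the 2-leaf stage, with 3 cm flood kept for the whole test. Response was judged visually relative to controls after 13 to 15 greenhouse days, 0 indicating no effect and 100 complete control.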
# [18] = tested on: sedge, umbrella; assay: Test B flooded paddy test; assay type: in vivo, Cyperus difformis; settings: Flood, 250 g ai/ha; 0 to 100 scale where 0 is no effect and 100 is complete control
# Procedure, shortened: as §2
# [19] = tested on: Heteranthera limosa; assay: Test B flooded paddy test; assay type: in vivo; settings: Flood, 250 g ai/ha; 0 to 100 scale where 0 is no effect and 100 is complete control
# Procedure, shortened: as §2
# [20] = tested on: barnyardgrass; assay: Test B flooded paddy test; assay type: in vivo, Echinochloa crus-galli; settings: Flood, 250 g ai/ha; 0 to 100 scale where 0 is no effect and 100 is complete control
# Procedure, shortened: as §2
# [21] = 500 g ai/ha, 0 to 100 scale, 0 no effect, 100 complete control, approx. 10 days
# [22] = 125 g ai/ha, 0 to 100 scale where 0 is no effect and 100 is complete control
# [23] = 500 g ai/ha, 0 to 100 scale where 0 is no effect and 100 is complete control
# [24] = 31 g ai/ha, visual, approximately 10 days
# [25] = 31 g ai/ha, 0 to 100 scale, 0 no effect, 100 complete control
# [26] = 125 g ai/ha, 0 to 100 scale, 0 no effect, 100 complete control
compound,measurement,setting,value
N#Cc1cccc(Oc2ncc(I)cn2)c1-n1cc(I)cn1 [Compound 87],"Plant response rating, Barnyardgrass",[1]; 125 g ai/ha,0
same,Barnyardgrass plant response rating,[1]; [21],10
same,"Plant response rating, Kochia",[2]; 125 g ai/ha,30
same,Kochia plant response rating,[2]; [21],60
same,"Plant response rating, Ragweed",[3]; 125 g ai/ha,10
same,Ragweed plant response rating,[3]; [21],20
same,"Plant response rating, Ryegrass, Italian",[4]; 125 g ai/ha,0
same,"Ryegrass, Italian plant response rating",[4]; [21],0
same,"Plant response rating, Foxtail, Giant",[5]; 125 g ai/ha,60
same,"Foxtail, Giant plant response rating",[5]; [21],70
same,"Plant response rating, Pigweed",[6]; 125 g ai/ha,90
same,Pigweed plant response rating,[6]; [21],100
same,"Plant response rating, Barnyardgrass",[7]; [22],20
same,"Plant response rating, Barnyardgrass",[7]; [23],20
same,"Plant response rating, Kochia",[8]; [22],50
same,"Plant response rating, Kochia",[8]; [23],90
same,"Plant response rating, Ragweed",[9]; [22],50
same,"Plant response rating, Ragweed",[9]; [23],70
same,"Plant response rating, Ryegrass, Italian",[10]; [22],30
same,"Plant response rating, Ryegrass, Italian",[10]; [23],40
same,"Plant response rating, Foxtail, Giant",[11]; [22],20
same,"Plant response rating, Foxtail, Giant",[11]; [23],60
same,"Plant response rating, Pigweed",[12]; [22],60
same,"Plant response rating, Pigweed",[12]; [23],100
same,"Plant response rating, Wheat",[13]; [22],0
same,"Plant response rating, Wheat",[13]; [23],0
same,"Plant response rating, Corn",[14]; [22],20
same,"Plant response rating, Corn",[14]; [23],20
same,"Plant response rating, Blackgrass",[15]; [22],40
same,"Plant response rating, Blackgrass",[15]; [23],50
same,"Plant response rating, Galium",[16]; [22],60
same,"Plant response rating, Galium",[16]; [23],90
same,"Plant response rating, Rice",[17],0
same,"Plant response rating, Sedge, Umbrella",[18],0
same,"Plant response rating, Ducksalad",[19],0
same,"Plant response rating, Barnyardgrass",[20],0
COc1cccc(Oc2ncc(Cl)cn2)c1-n1cc(Cl)cn1 [Compound 169],"Plant response rating, Barnyardgrass",[1]; [24],10
same,"Plant response rating, Barnyardgrass",[1]; 125 g ai/ha,50
same,"Plant response rating, Kochia",[2]; [24],0
same,Kochia plant response rating (0 to 100 scale),[2]; 125 g ai/ha,0
same,"Plant response rating, Ragweed",[3]; [24],0
same,Ragweed plant response rating (0 to 100 scale),[3]; 125 g ai/ha,0
same,"Plant response rating, Ryegrass, Italian",[4]; [24],0
same,"Ryegrass, Italian plant response rating (0 to 100 scale)",[4]; 125 g ai/ha,0
same,"Plant response rating, Foxtail, Giant",[5]; [24],30
same,"Plant response rating, Foxtail, Giant",[5]; 125 g ai/ha,80
same,"Plant response rating, Pigweed",[6]; [24],0
same,Pigweed plant response rating (0 to 100 scale),[6]; 125 g ai/ha,80
same,"Plant response rating, Barnyardgrass",[7]; [25],0
same,Barnyardgrass plant response rating,[7]; [22],20
same,"Plant response rating, Kochia",[8]; [25],0
same,Kochia plant response rating,[8]; [22],10
same,"Plant response rating, Ragweed",[9]; [25],10
same,Ragweed plant response rating,[9]; [22],60
same,"Plant response rating, Ryegrass, Italian",[10]; [25],0
same,"Ryegrass, Italian plant response rating",[10]; [22],0
same,"Plant response rating, Foxtail, Giant",[11]; [25],0
same,"Foxtail, Giant plant response rating",[11]; [22],40
same,"Plant response rating, Pigweed",[12]; [25],10
same,Pigweed plant response rating,[12]; [22],20
same,"Plant response rating, Wheat",[13]; [25],0
same,Wheat plant response rating,[13]; [22],0
same,"Plant response rating, Corn",[14]; [25],0
same,Corn plant response rating,[14]; [22],0
same,"Plant response rating, Blackgrass",[15]; [25],0
same,Blackgrass plant response rating,[15]; [22],30
same,"Plant response rating, Galium",[16]; [25],10
same,Galium plant response rating,[16]; [22],40
same,"Plant response rating, Rice",[17],15
same,"Plant response rating, Sedge, Umbrella",[18],75
same,"Plant response rating, Ducksalad",[19],65
same,"Plant response rating, Barnyardgrass",[20],25
FC(F)(F)c1cnn(-c2c(Oc3ncc(Cl)cn3)cccc2-c2ncon2)c1 [Compound 279],"Plant response rating, Barnyardgrass",[1]; [24],0
same,"Barnyardgrass plant response rating (0 to 100 scale, 0 is no effect, 100 is complete control)",[1]; 125 g ai/ha,10
same,"Plant response rating, Kochia",[2]; [24],40
same,Kochia plant response rating (0 to 100 scale),[2]; 125 g ai/ha,90
same,"Plant response rating, Ragweed",[3]; [24],0
same,Ragweed plant response rating (0 to 100 scale),[3]; 125 g ai/ha,10
same,"Plant response rating, Ryegrass, Italian",[4]; [24],0
same,"Ryegrass, Italian plant response rating (0 to 100 scale)",[4]; 125 g ai/ha,0
same,"Plant response rating, Foxtail, Giant",[5]; [24],40
same,"Foxtail, Giant plant response rating (0 to 100 scale)",[5]; 125 g ai/ha,50
same,"Plant response rating, Pigweed",[6]; [24],90
same,Pigweed plant response rating (0 to 100 scale),[6]; 125 g ai/ha,100
same,"Plant response rating, Barnyardgrass",[7]; [25],0
same,"Plant response rating, Barnyardgrass",[7]; [26],30
same,"Plant response rating, Kochia",[8]; [25],40
same,"Plant response rating, Kochia",[8]; [26],90
same,"Plant response rating, Ragweed",[9]; [25],20
same,"Plant response rating, Ragweed",[9]; [26],40
same,"Plant response rating, Ryegrass, Italian",[10]; [25],0
same,"Plant response rating, Ryegrass, Italian",[10]; [26],50
same,"Plant response rating, Foxtail, Giant",[11]; [25],10
same,"Plant response rating, Foxtail, Giant",[11]; [26],50
same,"Plant response rating, Pigweed",[12]; [25],50
same,"Plant response rating, Pigweed",[12]; [26],80
same,"Plant response rating, Wheat",[13]; [25],0
same,"Plant response rating, Wheat",[13]; [26],30
same,"Plant response rating, Corn",[14]; [25],10
same,"Plant response rating, Corn",[14]; [26],10
same,"Plant response rating, Blackgrass",[15]; [25],10
same,"Plant response rating, Blackgrass",[15]; [26],40
same,"Plant response rating, Galium",[16]; [25],20
same,"Plant response rating, Galium",[16]; [26],80
same,"Plant response rating, Rice",[17],50
same,"Plant response rating, Sedge, Umbrella",[18],90
same,"Plant response rating, Ducksalad",[19],90
same,"Plant response rating, Barnyardgrass",[20],75
Fc1cnc(Oc2ccccc2-n2cc(SC(F)(F)F)cn2)nc1 [Compound 247],"Plant response rating, Barnyardgrass",[1]; [24],0
same,"Barnyardgrass plant response rating (0 to 100 scale, 0 is no effect, 100 is complete control)",[1]; 125 g ai/ha,70
same,"Plant response rating, Kochia",[2]; [24],0
same,Kochia plant response rating (0 to 100 scale),[2]; 125 g ai/ha,60
same,"Plant response rating, Ragweed",[3]; [24],0
same,Ragweed plant response rating (0 to 100 scale),[3]; 125 g ai/ha,0
same,"Plant response rating, Ryegrass, Italian",[4]; [24],0
same,"Ryegrass, Italian plant response rating (0 to 100 scale)",[4]; 125 g ai/ha,0
same,"Plant response rating, Foxtail, Giant",[5]; [24],0
same,"Foxtail, Giant plant response rating (0 to 100 scale)",[5]; 125 g ai/ha,100
same,"Plant response rating, Pigweed",[6]; [24],0
same,Pigweed plant response rating (0 to 100 scale),[6]; 125 g ai/ha,80
same,"Plant response rating, Barnyardgrass",[7]; [25],0
same,"Plant response rating, Barnyardgrass",[7]; [26],20
same,"Plant response rating, Kochia",[8]; [25],20
same,"Plant response rating, Kochia",[8]; [26],40
same,"Plant response rating, Ragweed",[9]; [25],0
same,"Plant response rating, Ragweed",[9]; [26],0
same,"Plant response rating, Ryegrass, Italian",[10]; [25],0
same,"Plant response rating, Ryegrass, Italian",[10]; [26],0
same,"Plant response rating, Foxtail, Giant",[11]; [25],0
same,"Plant response rating, Foxtail, Giant",[11]; [26],10
same,"Plant response rating, Pigweed",[12]; [25],10
same,"Plant response rating, Pigweed",[12]; [26],20
same,"Plant response rating, Wheat",[13]; [25],0
same,"Plant response rating, Wheat",[13]; [26],20
same,"Plant response rating, Corn",[14]; [25],0
same,"Plant response rating, Corn",[14]; [26],20
same,"Plant response rating, Blackgrass",[15]; [25],0
same,"Plant response rating, Blackgrass",[15]; [26],40
same,"Plant response rating, Galium",[16]; [25],10
same,"Plant response rating, Galium",[16]; [26],30
same,"Plant response rating, Rice",[17],0
same,"Plant response rating, Sedge, Umbrella",[18],50
same,"Plant response rating, Ducksalad",[19],65
same,"Plant response rating, Barnyardgrass",[20],0
